Test results taken from the supplement of paper PMC8612539.
Values after ≈ are worked out from the molar mass of the structure shown.

System: Pasteurella multocida
Assay: minimum inhibitory concentration (MIC)
Protocol: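 Broth microdilution MIC (Sensititre BOPO7F bovine plate, CLSI methods) of 19 antimicrobials against field isolates of P. multocida, M. haemolytica, H. somni (deep nasopharyngeal swabs) and E. coli, Enterococcus spp. (rectal swabs) from weaned dairy heifers. Incubation 16-24 h at 35 C. MIC is the lowest concentration preventing visible growth. Values with <= or > lie at the tested range limits. Trimethoprim-sulfamethoxazole is given as the trimethoprim component of a 1:19 mixture.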

CN[C@@H]1[C@H](O)[C@H](NC)[C@H]2O[C@@]3(O)C(=O)C[C@@H](C)O[C@H]3O[C@@H]2[C@H]1O [Spectinomycin]
Conditions	minimum inhibitory concentration [µg/mL]
isolate (source animal id): 10	32 (≈ 96.3 µM)
isolate (source animal id): 11	32 (≈ 96.3 µM)
isolate (source animal id): 12	32 (≈ 96.3 µM)
isolate (source animal id): 19	32 (≈ 96.3 µM)
isolate (source animal id): 23	32 (≈ 96.3 µM)
isolate (source animal id): 26	32 (≈ 96.3 µM)
isolate (source animal id): 98	32 (≈ 96.3 µM)
isolate (source animal id): 104	≤ 8
isolate (source animal id): 115	> 64
isolate (source animal id): 117	32 (≈ 96.3 µM)
isolate (source animal id): 118	32 (≈ 96.3 µM)
isolate (source animal id): 121	> 64
isolate (source animal id): 124	32 (≈ 96.3 µM)
isolate (source animal id): 125	32 (≈ 96.3 µM)
isolate (source animal id): 128	> 64
isolate (source animal id): 131	> 64
isolate (source animal id): 135	> 64
isolate (source animal id): 136	> 64
isolate (source animal id): 140	16 (≈ 48.1 µM)
isolate (source animal id): 144	32 (≈ 96.3 µM)
isolate (source animal id): 146	32 (≈ 96.3 µM)
isolate (source animal id): 150	> 64
isolate (source animal id): 151	> 64
isolate (source animal id): 153	16 (≈ 48.1 µM)
isolate (source animal id): 155	32 (≈ 96.3 µM)
isolate (source animal id): 157	16 (≈ 48.1 µM)
isolate (source animal id): 160	> 64
isolate (source animal id): 164	> 64
isolate (source animal id): 165	> 64
isolate (source animal id): 167	> 64
isolate (source animal id): 168	32 (≈ 96.3 µM)
isolate (source animal id): 169	32 (≈ 96.3 µM)
isolate (source animal id): 170	32 (≈ 96.3 µM)
isolate (source animal id): 171	32 (≈ 96.3 µM)
isolate (source animal id): 172	> 64
isolate (source animal id): 173	32 (≈ 96.3 µM)
isolate (source animal id): 174	> 64
isolate (source animal id): 175	> 64
isolate (source animal id): 176	> 64
isolate (source animal id): 177	> 64
isolate (source animal id): 178	> 64
isolate (source animal id): 179	32 (≈ 96.3 µM)
isolate (source animal id): 182	> 64
isolate (source animal id): 192	> 64
isolate (source animal id): 193	> 64
isolate (source animal id): 195	> 64
isolate (source animal id): 196	> 64
isolate (source animal id): 197	> 64
isolate (source animal id): 198	32 (≈ 96.3 µM)
isolate (source animal id): 199	32 (≈ 96.3 µM)
isolate (source animal id): 200	32 (≈ 96.3 µM)
isolate (source animal id): 201	> 64
isolate (source animal id): 203	> 64
isolate (source animal id): 204	> 64
isolate (source animal id): 205	32 (≈ 96.3 µM)
isolate (source animal id): 206	> 64
isolate (source animal id): 207	> 64
isolate (source animal id): 208	32 (≈ 96.3 µM)
isolate (source animal id): 209	> 64
isolate (source animal id): 210	32 (≈ 96.3 µM)
isolate (source animal id): 213	32 (≈ 96.3 µM)
isolate (source animal id): 216	> 64
isolate (source animal id): 223	32 (≈ 96.3 µM)
isolate (source animal id): 227	> 64
isolate (source animal id): 229	32 (≈ 96.3 µM)
isolate (source animal id): 233	32 (≈ 96.3 µM)
isolate (source animal id): 234	32 (≈ 96.3 µM)
isolate (source animal id): 237	32 (≈ 96.3 µM)
isolate (source animal id): 241	16 (≈ 48.1 µM)
isolate (source animal id): 245	32 (≈ 96.3 µM)
isolate (source animal id): 247	32 (≈ 96.3 µM)
isolate (source animal id): 250	16 (≈ 48.1 µM)
isolate (source animal id): 254	32 (≈ 96.3 µM)
isolate (source animal id): 255	32 (≈ 96.3 µM)
isolate (source animal id): 258	> 64
isolate (source animal id): 261	32 (≈ 96.3 µM)
isolate (source animal id): 262	32 (≈ 96.3 µM)
isolate (source animal id): 269	32 (≈ 96.3 µM)
isolate (source animal id): 270	32 (≈ 96.3 µM)
isolate (source animal id): 274	32 (≈ 96.3 µM)
isolate (source animal id): 275	32 (≈ 96.3 µM)
isolate (source animal id): 276	16 (≈ 48.1 µM)
isolate (source animal id): 277	32 (≈ 96.3 µM)
isolate (source animal id): 278	32 (≈ 96.3 µM)
isolate (source animal id): 279	32 (≈ 96.3 µM)
isolate (source animal id): 280	32 (≈ 96.3 µM)
isolate (source animal id): 284	32 (≈ 96.3 µM)
isolate (source animal id): 285	32 (≈ 96.3 µM)
isolate (source animal id): 287	32 (≈ 96.3 µM)
isolate (source animal id): 290	32 (≈ 96.3 µM)
isolate (source animal id): 294	32 (≈ 96.3 µM)
isolate (source animal id): 295	16 (≈ 48.1 µM)
isolate (source animal id): 296	32 (≈ 96.3 µM)
isolate (source animal id): 307	32 (≈ 96.3 µM)
isolate (source animal id): 310	32 (≈ 96.3 µM)
isolate (source animal id): 311	16 (≈ 48.1 µM)
isolate (source animal id): 312	16 (≈ 48.1 µM)
isolate (source animal id): 313	16 (≈ 48.1 µM)
isolate (source animal id): 315	32 (≈ 96.3 µM)
isolate (source animal id): 316	32 (≈ 96.3 µM)
